Data published in ChEMBL document CHEMBL1148804, “Enzyme adaptation to inhibitor binding: a cryptic binding site in phenylethanolamine N-methyltransferase” (J Med Chem, 2007).

Species on record: Homo sapiens
Assay: Ratio of Ki for wild type human PNMT to Ki for human PNMT K57 mutant

NS(=O)(=O)c1ccc2c(c1)CNCC2
Ratio Ki: 0.02
